These results are taken from ChEMBL document CHEMBL5247668, “Design, synthesis and biological evaluation of novel indole-3-carboxylic acid derivatives with antihypertensive activity” (Bioorg Med Chem Lett, 2023).

Data set [1] has as its target T1, Type-1 angiotensin II receptor (Homo sapiens, UniProt P30556).
T1 sequence (P30556 whole entry): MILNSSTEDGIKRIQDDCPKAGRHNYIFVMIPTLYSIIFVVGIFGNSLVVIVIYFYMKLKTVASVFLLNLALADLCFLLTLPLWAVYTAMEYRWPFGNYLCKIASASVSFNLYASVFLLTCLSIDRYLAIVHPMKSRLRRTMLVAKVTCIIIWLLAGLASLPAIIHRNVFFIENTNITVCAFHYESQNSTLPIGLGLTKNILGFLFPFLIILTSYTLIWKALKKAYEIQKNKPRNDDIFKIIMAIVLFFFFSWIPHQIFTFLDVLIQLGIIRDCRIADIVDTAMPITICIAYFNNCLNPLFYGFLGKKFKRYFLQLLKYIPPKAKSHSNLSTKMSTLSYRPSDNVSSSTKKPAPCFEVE
Nature of the data set: Displacement of [125I]-Angiotensin II from Angiotensin II type-1 receptor in VSMC cells (unknown origin) assessed as inhibition constant by competition radioligand binding assay. Type of data set: cell-based. For orientation: Loss of bound radioactivity is the signal in a displacement assay; it reports binding, not function.

Data set [2] addresses T1, Type-1 angiotensin II receptor. Nature of the data set: Displacement of [125I]-Angiotensin II from Angiotensin II type-1 receptor in VSMC cells (unknown origin) by competition radioligand binding assay. It is filed as cell-based.
Data set [3] concerns Rattus norvegicus. Kind of data set: Antihypertensive activity in spontaneously hypertensive rat assessed as decrease in blood pressure at 5 to 10 mg/kg, po. Type of data set: functional, organism-based. The note with it: dose 5-10 mg/kg.
For data set [4], the system named is Rattus norvegicus. Nature of the data set: Antihypertensive activity in spontaneously hypertensive rat assessed as decrease in maximal mean blood pressure at 10 mg/kg, po. It is filed as functional.
The subject of data set [5] is Rattus norvegicus. Kind of data set: Antihypertensive activity in spontaneously hypertensive rat assessed as decrease in maximal mean blood pressure at 10 mg/kg, po measured for 24 hrs. It is filed as functional, organism-based.
Data set [6] is described as follows: Cmax in spontaneously hypertensive Wistar rat at 10 mg/kg, po. It is filed as ADME, organism-based. Set-up: dose 10 mg/kg, route po. The note with it: in vivo.
A short description of data set [7]: Tmax in spontaneously hypertensive Wistar rat at 10 mg/kg, po. The note with it: in vivo. Type of data set: ADME, organism-based.
The nature of data set [8]: MRT (0 to infinity) in spontaneously hypertensive Wistar rat at 10 mg/kg, po. The note with it: in vivo. It is filed as ADME, organism-based.
Data set [9] can be described thus: AUC (0 to infinity) in spontaneously hypertensive Wistar rat at 10 mg/kg, po. Set-up: dose 10 mg/kg, route po. The note with it: in vivo. Type of data set: ADME, organism-based.
Data set [10] in a line: AUC (0 to 72 hrs) in spontaneously hypertensive Wistar rat at 10 mg/kg, po. It is filed as ADME, organism-based. Set-up: dose 10 mg/kg, route po. The note with it: in vivo.
Data set [11] can be described thus: Half life in spontaneously hypertensive Wistar rat at 10 mg/kg, po. It is filed as ADME, organism-based. The note with it: in vivo.
Data set [12] in a line: MRT (0 to 72 hrs) in spontaneously hypertensive Wistar rat at 10 mg/kg, po. The note with it: in vivo. It is filed as ADME, organism-based.

The source made the active and inactive calls.

As usually defined, the Ki is a measure of affinity in units of concentration, obtained from inhibition or displacement. Usually IC50 stands for the concentration at which inhibition is half-maximal. A high value points to lower potency. In the case of `O=C(O)c1c(COCc2ccccc2)n(C(=O)c2ccccc2)c2ccccc12`, the inhibition constant Ki in data set [1] worked out at 31.4 nM. In data set [2], this compound had an IC50 of 32.2 nM. The result with Rattus norvegicus [3] was Active.

Consider `CCCCc1c(C(=O)O)c2ccccc2n1S(=O)(=O)c1ccc(C)cc1`, for which the Ki in [1] was found to be 27.3 nM. The IC50 in data set [2] is 28.3 nM. In addition, the result in the data set with Rattus norvegicus [3] was Active.

On to `CS(=O)(=O)n1c(COCc2ccccc2)c(C(=O)O)c2ccccc21`, for which, in data set [1], the Ki amounted to 24.7 nM. For the same compound, the IC50 in [2] turned out to be 25.5 nM. Further, in the data set on Rattus norvegicus [3], the outcome was Active.

Turning to `CCCCc1nc(Cl)c(CO)n1Cc1ccc(-c2ccccc2-c2nnn[nH]2)cc1` [LOSARTAN], the Activity in the data set with Rattus norvegicus [4] is recorded as 42.5 mmHg.

`CS(=O)(=O)n1c(-c2ccccc2)c(C(=O)O)c2ccccc21`: the Ki in [1] turned out to be 10.8 nM. This compound also had an IC50 in data set [2] of 11.3 nM. The outcome in the data set on Rattus norvegicus [5] and with Rattus norvegicus [3] was Active. The Activity in the data set on Rattus norvegicus [4] turned out to be 46.3 mmHg.

`O=C(O)c1c(CO)n(C(=O)c2ccccc2)c2ccccc12`: the Ki in data set [1] was determined as 30.8 nM. In data set [2], this compound had an IC50 of 31.1 nM. Also, the outcome in the data set with Rattus norvegicus [3] was Active.

Consider `CS(=O)(=O)n1c(CO)c(C(=O)O)c2ccccc21`, for which, in data set [1], the Ki came to 26.3 nM. In data set [2], this compound registered an IC50 of 27.1 nM. In addition, the outcome in the data set on Rattus norvegicus [3] was Active.

Turning to `Cc1ccc(S(=O)(=O)n2c(CO)c(C(=O)O)c3ccccc32)cc1`, the inhibitory constant (Ki) in data set [1] was 23.3 nM. The half-maximal inhibitory concentration (IC50) in [2] is 24.2 nM. For the same compound, the outcome in the data set with Rattus norvegicus [3] was Active.

Consider `CCCCc1c(C(=O)O)c2ccccc2n1C(=O)c1ccccc1`, for which the Ki in data set [1] turned out to be 21.9 nM. The compound also displayed an IC50 in data set [2] of 22.2 nM. Further, in the data set on Rattus norvegicus [3], the result was Active.

As for `Cc1ccc(S(=O)(=O)n2c(COCc3ccccc3)c(C(=O)O)c3ccccc32)cc1`, the Ki in [1] was found to be 21.7 nM. The compound also yielded an IC50 in data set [2] of 22.4 nM. The outcome in the data set with Rattus norvegicus [3] was Active.

For `CCCCc1c(C(=O)O)c2ccccc2n1S(C)(=O)=O`, the Ki in data set [1] worked out at 28.6 nM. In [2], this compound returned an IC50 of 29.2 nM. Further, the result with Rattus norvegicus [3] was Active.

As for `Cc1ccc(S(=O)(=O)n2c(-c3ccccc3)c(C(=O)O)c3ccccc32)cc1`, in [1], the Ki is 16.4 nM. The compound further registered an IC50 in data set [2] of 18 nM. In addition, the outcome in the data set on Rattus norvegicus [3] was Active.

As usually defined, the Cmax is the peak of the concentration-time curve. The Tmax is the time at which the peak concentration occurs. For orientation: MRT inf means a mean duration of stay, worked out from the concentration-time curve. What is called AUC(0-inf) is total exposure, with the tail of the curve extrapolated. Low values mean low exposure, high ones high exposure. By AUC(0-t) is commonly meant exposure summed from dosing to a finite time, without extrapolation to infinity. Read a high AUC(0-t) as more exposure. In general, half-life refers to the time needed for the level to fall by half in the phase considered. Higher therefore signals slow loss. Broadly, the MRT last is the average time that molecules of a dose stay in the body. As for `O=C(O)c1c(-c2ccccc2)n(C(=O)c2ccccc2)c2ccccc12`, the peak concentration (Cmax) in data set [6] stood at 18.1 ng/mL. For the same compound, the time of peak concentration (Tmax) in data set [7] was found to be 2.7 h. The Ki in [1] worked out at 11 nM. The compound also gave an MRT inf in data set [8] of 30.3 h. The same compound registered a half-maximal inhibitory concentration (IC50) in [2] of 12.3 nM. In addition, the AUC(0-inf) in data set [9] came to 260 ng·h/mL. The outcome in the data set on Rattus norvegicus [5] and with Rattus norvegicus [3] was Active. Besides, the AUC(0-t) in data set [10] stood at 253 ng·h/mL. In data set [11], this compound gave a half-life of 19.9 h. The compound also yielded an MRT last in data set [12] of 20.2 h. Further, in the data set on Rattus norvegicus [4], the Activity is 48.6 mmHg.
